According to ChEMBL document CHEMBL4219187, “A new target for Alzheimer's disease: A small molecule SERCA activator is neuroprotective in vitro and improves memory and cognition in APP/PS1 mice” (Bioorg Med Chem Lett, 2018):
Calls of active or inactive are those of the source. The calls are words filed in the database; no cut-off is given here.

Columns and labels:
[1] = Half life in mouse hepatocytes; type: ADME, cell-based, Hepatocyte
[2] = Half life in human hepatocytes; type: ADME, cell-based, Hepatocyte
[3] = Half life in mouse microsomes; type: ADME, Microsome
[4] = Half life in human microsomes; type: ADME, Microsome
[5] = Half life in mouse plasma; type: ADME, cell-free
[6] = Half life in human plasma; type: ADME, cell-free
[7] = Clearance in mouse at 2 mg/kg, po; type: ADME, organism-based; settings: in vivo
[8] = molecular target: Voltage-gated inwardly rectifying potassium channel KCNH2 (Homo sapiens, UniProt Q12809); assay: Inhibition of human ERG up to 10 uM
[9] = Inhibition of CYP450 (unknown origin) up to 5 uM; type: ADME; settings: human
[10] = Oral bioavailability in mouse at 50 mg/kg; type: ADME, organism-based; settings: in vivo
Mus musculus [11] = assay: Toxicity in mouse at 50 mg/kg, po; type: organism-based; settings: in vivo
[12] = Ratio of drug level in brain to plasma in mouse measured at 1 hr post dose; type: ADME, cell-free; settings: brain and plasma, read-out: BPR
Mus musculus [13] = assay: Cognition enhancement activity in APPSWE/PSEN1dE9 double-transgenic mouse model of Alzheimer's disease assessed as decrease in total swim distance for hidden platform at 10 mg/kg, ip administered daily for 5 days per week for 4 weeks by Morris water maze test; type: functional, organism-based
Mus musculus [14] = assay: Antialzheimer activity in APPSWE/PSEN1dE9 double-transgenic mouse model of Alzheimer's disease assessed as decrease in impairment of motor coordination at 10 mg/kg, ip administered daily for 5 days per week for 4 weeks by rotarod test; type: functional, organism-based
Mus musculus [15] = assay: Antidepressant activity in APPSWE/PSEN1dE9 double-transgenic mouse model of Alzheimer's disease assessed as reduction in immobility time at 10 mg/kg, ip administered daily for 5 days per week for 4 weeks by tail suspension test; type: functional, organism-based
HeLa = assay: Activation of SERCA in human HeLa cells assessed as protection against thapsigargin induced depletion of ER calcium stores at 10 uM up to 150 secs by cameleon plasmid-based fluorescence assay; type: cell-based
Rattus norvegicus = species: Rattus norvegicus; assay: Cytoprotection against thapsigargin induced cell death in rat CSM14.1 cells assessed as increase in cell viability preincubated for 2 hrs followed by thapsigargin induction measured after 20 hrs by ATPlite assay; type: functional, cell-based
[16] = Cytotoxicity against rat CSM14.1 cells assessed as cell viability after 20 hrs by ATPlite assay relative to control; type: cell-based; settings: read-out: Activity

Chain of Voltage-gated inwardly rectifying potassium channel KCNH2 (Q12809 whole entry): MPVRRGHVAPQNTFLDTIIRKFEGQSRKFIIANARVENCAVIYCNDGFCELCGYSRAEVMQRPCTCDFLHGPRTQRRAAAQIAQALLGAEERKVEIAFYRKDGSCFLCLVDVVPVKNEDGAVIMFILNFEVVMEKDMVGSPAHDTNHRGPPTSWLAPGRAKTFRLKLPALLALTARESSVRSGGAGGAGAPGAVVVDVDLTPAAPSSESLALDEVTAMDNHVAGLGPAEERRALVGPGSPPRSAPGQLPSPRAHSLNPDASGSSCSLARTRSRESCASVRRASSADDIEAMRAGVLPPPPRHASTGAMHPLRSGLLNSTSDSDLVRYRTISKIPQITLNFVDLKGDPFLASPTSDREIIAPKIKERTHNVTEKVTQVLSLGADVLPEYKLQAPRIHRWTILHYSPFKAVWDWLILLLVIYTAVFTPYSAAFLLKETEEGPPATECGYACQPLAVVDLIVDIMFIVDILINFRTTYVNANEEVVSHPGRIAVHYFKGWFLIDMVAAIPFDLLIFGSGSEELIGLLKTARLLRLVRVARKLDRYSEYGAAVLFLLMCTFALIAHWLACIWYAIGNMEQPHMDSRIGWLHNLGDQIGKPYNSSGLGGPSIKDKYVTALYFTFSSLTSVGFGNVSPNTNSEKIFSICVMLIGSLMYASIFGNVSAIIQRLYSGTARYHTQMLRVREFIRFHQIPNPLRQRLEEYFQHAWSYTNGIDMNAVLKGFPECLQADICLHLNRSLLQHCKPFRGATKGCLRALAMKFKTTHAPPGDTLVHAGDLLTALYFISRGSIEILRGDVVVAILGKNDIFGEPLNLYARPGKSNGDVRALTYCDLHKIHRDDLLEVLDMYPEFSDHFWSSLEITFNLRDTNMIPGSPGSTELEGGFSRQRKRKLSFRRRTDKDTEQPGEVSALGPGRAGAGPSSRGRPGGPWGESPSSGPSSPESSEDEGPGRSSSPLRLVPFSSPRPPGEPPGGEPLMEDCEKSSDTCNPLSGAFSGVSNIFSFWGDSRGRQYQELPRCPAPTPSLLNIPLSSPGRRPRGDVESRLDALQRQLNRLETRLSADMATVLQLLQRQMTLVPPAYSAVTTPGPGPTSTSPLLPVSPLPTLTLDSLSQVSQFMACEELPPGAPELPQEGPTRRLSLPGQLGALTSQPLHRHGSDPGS

Compound Cc1ccc2cccc(NC(=O)c3ccc(OC(C)C)cc3)c2n1 has a half-life [1] of 2 min, a half-life [2] of 45 min and a half-life [3] of 2 min. For the same compound, the half-life [4] was 15 min, the half-life [5] was 140 min and the half-life [6] was > 300 min. The CL/F [7] was 251 mL/min/kg, the “inhibition (INH)” value [8] was “Active” and the “inhibition (INH)” value [9] was “Not Active”. For the same compound, the bioavailability [10] was 37%, the Activity (Mus musculus [11]) was “Non-Toxic” and the Kp at 1 h [12] was 3. The Activity (Mus musculus [13]) was “Active”, the Activity (Mus musculus [14]) was “Active” and the Activity (Mus musculus [15]) was “Active”. The Activity (HeLa) was “Active”, the Activity (Rattus norvegicus) was “Dose-dependent effect” and the viability at 20 h [16] was 100%.
